Measurements taken from PMC5540198, “A phase I trial of ganetespib in combination with paclitaxel and trastuzumab in patients with human epidermal growth factor receptor-2 (HER2)-positive metastatic breast cancer” (Breast Cancer Research : BCR, 2017).
Where two headings read alike, the source gives them in different places. Marks after values point to notes of the source that are not given here.

How the values were obtained:
[1] = test system: HER2-positive metastatic breast cancer; experiment: Phase I trial: anti-tumor activity by RECIST 1.1; assay type: in vivo, human
Experimental: The sequence of administration was trastuzumab (2 mg/kg) followed by paclitaxel (80 mg/m^2) followed by ganetespib. If the patient’s last dose of trastuzumab was >21 days before enrollment, they received a loading dose of trastuzumab at 4 mg/kg over 90 minutes. Ganetespib was then administered intravenously over 60 minutes. The starting dose of ganetespib was 100 mg/m^2, and if there were no DLTs the next cohort would escalate to 150 mg/m^2. A further dose level of 125 mg/m^2 was incorporated in the circumstance of good tolerance of the 100 mg/m^2 but poor tolerance of the 150 mg/m^2 dose levels. There was no dose escalation for paclitaxel and trastuzumab. Therapy was continued until disease progression or unacceptable toxicity. Patients were evaluated for response initially after two cycles and then every three cycles thereafter using the RECIST criteria. All patients with PR or complete response (CR) were required to have confirmation of response 4 weeks after the criteria for response were first met. The best overall response was defined as the best response recorded from the start of treatment until disease progression or withdrawal from the study. […] The CBR was defined as the proportion of patients whose best overall response, according to RECIST, was CR, PR, or SD lasting for at least 24 weeks.

[2] = test system: patients with HER2-positive metastatic breast cancer; experiment: Phase I dose-escalation trial: safety, DLT and RP2D of ganetespib with paclitaxel and trastuzumab; assay type: in vivo, human
From the text: Patients were eligible if they were aged ≥ 18 years, had locally advanced or metastatic HER2-positive disease (defined as FISH ratio ≥ 2.0 or immunohistochemistry (IHC) 3+), ECOG ≤ 2, measurable disease per RECIST 1.1 [23], and adequate end organ function (defined as hemoglobin ≥ 9 g/dl, absolute neutrophil count (ANC) ≥ 1.5 × 10^9/L, platelets ≥ 100 × 10^9/L, bilirubin ≤ 1.5 upper limit of normal (ULN), aspartate aminotransferase (AST) and alanine aminotransferase (ALT) ≤ 2.5 ULN, and serum creatinine ≤ 1.5 ULN). Patients must have received prior trastuzumab and those with estrogen receptor (ER)-positive disease must have received prior endocrine therapy. Any number of prior lines of chemotherapy in the metastatic setting was allowed. Progression on prior treatment with pertuzumab and T-DM1 was required (unless heavily pretreated prior to FDA approval of pertuzumab for first-line treatment of HER2-positive metastatic breast cancer (6/2012) and/or T-DM1 (2/2013)).
Patients received intravenous infusions of trastuzumab and paclitaxel with ganetespib on days 1, 8, and 15 and of trastuzumab and paclitaxel on day 22 of a 28-day cycle. The sequence of administration was trastuzumab (2 mg/kg) followed by paclitaxel (80 mg/m^2) followed by ganetespib. If the patient’s last dose of trastuzumab was >21 days before enrollment, they received a loading dose of trastuzumab at 4 mg/kg over 90 minutes. Ganetespib was then administered intravenously over 60 minutes. The starting dose of ganetespib was 100 mg/m^2, and if there were no DLTs the next cohort would escalate to 150 mg/m^2. A further dose level of 125 mg/m^2 was incorporated in the circumstance of good tolerance of the 100 mg/m^2 but poor tolerance of the 150 mg/m^2 dose levels. There was no dose escalation for paclitaxel and trastuzumab. Therapy was continued until disease progression or unacceptable toxicity.
Patients were examined and assessed for toxicities during and prior to each cycle. Toxicity was graded according to National Cancer Institute (NCI) CTCAE version 4.0 (http://ctep.cancer.gov/protocolDevelopment/electronic_applications/ctc.htm#ctc_40). Patients were evaluated for DLT during cycle 1. DLT was defined as any drug-related grade ≥ 4 nonhematologic adverse events (AEs) or any grade 3 nonhematologic AEs not improving to baseline or grade ≤ 1 by day 14; grade 4 neutropenia lasting ≥ 7 days, or febrile neutropenia, grade 4 thrombocytopenia, or any grade 3 thrombocytopenia that has not recovered to grade ≤ 2 by day 7; or any treatment-related toxicity prompting a dose reduction of ganetespib during the DLT observation period.
Paclitaxel dose reductions were not permitted during the DLT observation period. For dosing beyond cycle 1, paclitaxel was held if patients experienced any other grade 3 or 4 toxicity thought to be related to paclitaxel until symptoms resolved to grade 1/baseline grade. One dose reduction for paclitaxel to 65 mg/m^2 was permitted.

metastatic breast cancer = test system: metastatic breast cancer; design: method as in PMID 24512858; details: cited from earlier work
[3] = design: method as in earlier work; details: PET agent labelled with ^124I; cited from earlier work
[4] = test system: HER2-positive metastatic breast cancer; design: method as in PMID 22781552; details: plus trastuzumab; cited from earlier work
[5] = Pharmacokinetics of paclitaxel in plasma, cycle 1 day 8 to day 9; assay type: in vivo, human
Experimental: Blood samples for determination of plasma concentrations of paclitaxel were collected on cycle 1, day 8 through cycle 1, day 9 at the following time points after trastuzumab infusion and relative to the start of the paclitaxel infusion: 5 minutes prior to treatment, and 30 and 60 minutes (immediately prior to stopping the paclitaxel infusion pump and starting the ganetespib infusion) after start of paclitaxel infusion. Blood samples were also collected at the following time points after starting ganetespib infusion: 1.5, 2, 4, 7, 21, 24, 27, and 31 hours. Each blood sample (3–5 ml) was collected in sodium heparin tubes and transferred into two polypropylene tubes (1 ml each) and stored at –80 °C. PK were performed in collaboration with Synta Pharmaceuticals, Inc. PK parameters of paclitaxel (such as the area under the curve (AUC) and the maximum serum concentration (Cmax)) were examined descriptively to evaluate the effect of ganetespib on these measures.

[6] = test system: HER2-positive breast cancer; design: method as in PMID 23580070; details: in combination with trastuzumab; cited from earlier work
[7] = test system: HER2-positive and ER-positive breast cancer; design: method as in PMID 18430202; details: intravenous, single agent; among 10 patients; cited from earlier work
[8] = test system: trastuzumab-refractory HER2-positive metastatic breast cancer; design: method as in PMID 18048823, PMID 21558407; details: in combination with trastuzumab; cited from earlier work

## CC(C)c1cc(-c2n[nH]c(=O)n2-c2ccc3c(ccn3C)c2)c(O)cc1O [ganetespib, 5-(2,4-dihydroxy-5-(1-methylethyl)phenyl)-4-(1-methyl-1H-indol-5-yl)-2,4-dihydro-(1,2,4)triazol-3-one]
[1]; ganetespib 100 or 150 mg/m^2 days 1, 8, 15 with weekly paclitaxel 80 mg/m^2 and trastuzumab 2 mg/kg, 2/9 patients, both in 150 mg/m^2 cohort
  overall response rate (ORR), confirmed partial responses: 22%
[1]; triplet regimen, 4/9 patients
  clinical benefit rate (CBR: CR, PR or SD at least 24 weeks): 44%
[1]; triplet regimen, nine patients
  median progression-free survival: 20 weeks
  progression-free survival, range: 8–55 weeks
[2]; in combination with weekly paclitaxel plus trastuzumab
  recommended phase II dose (RP2D): 150 mg/m^2
[2]; nine patients
  anemia, grade 1/2, drug-related: 44%
  diarrhea, grade 1/2, drug-related: 78%
  elevated AST or ALT, grade 1/2, drug-related: 32%
  fatigue, grade 1/2, drug-related: 67%
  nausea, grade 1/2, drug-related: 32%
  rash, grade 1/2, drug-related: 32%
[2]; nine patients, CTCAE 4.0
  grade 4 AEs related to ganetespib: no grade 4 AEs
[2]; nine patients, cycle 1, 100 and 150 mg/m^2 cohorts
  patients with dose-limiting toxicities (DLTs): None
[2]; of nine patients
  Grade 3 ALT, increased, N patients: 1
  Grade 3 phosphorus, decreased, N patients: 1
  Grade 3 pruritus, N patients: 1
Metastatic breast cancer; single-agent ganetespib
  ORR: 15%
Metastatic breast cancer; single-agent, HER2-positive metastatic breast cancer
  cases of SD in HER2-positive patients, number: six
Metastatic breast cancer; single-agent, HER2-positive, trastuzumab-refractory metastatic breast cancer
  confirmed PRs, number: two
Metastatic breast cancer; single-agent, six HER2-positive and one TNBC
  SDs, total number: seven

## CC(C)NCCCn1c(Sc2cc3c(cc2[124I])OCO3)nc2c(N)ncnc21 [^124I-PU-H71]
[3]
  half-life: 96.5 h

## CO[C@H]1/C=C\C=C(/C)C(=O)NC2=CC(=O)C(NCCN(C)C)=C(C[C@@H](C)C[C@H](OC)[C@H](O)[C@@H](C)/C=C(\C)[C@@H]1OC(N)=O)C2=O [alvespimycin]
[4]
  partial response (PR), number of cases: one
  stable disease (SD) lasting >6 months, number of cases: six

## CC(=O)O[C@H]1C(=O)[C@@]2(C)[C@H]([C@H](OC(=O)c3ccccc3)[C@]3(O)C[C@H](OC(=O)[C@H](O)[C@@H](NC(=O)c4ccccc4)c4ccccc4)C(C)=C1C3(C)C)[C@]1(OC(C)=O)CO[C@@H]1C[C@@H]2O [paclitaxel]
[5]; human, in vivo, iv
  Tmax: 1.0 ± 0.0 h
  half-life: 13.6 ± 3.3 h
[5]; human, in vivo, iv, Tmax
  Tmax: 0.8 ± 0.3 h
[5]; human, in vivo, iv, paclitaxel 80 mg/m^2 i.v., ganetespib 100 mg/m^2, n=3
  Cmax: 3340 ± 1270 ng/mL
[5]; paclitaxel 80 mg/m^2 i.v., ganetespib 100 mg/m^2, n=3
  T1/2: 12.9 ± 0.4 h
[2]; of nine patients, attributable to paclitaxel
  Grade 3 blurred vision/grade 3 dry eyes (in same patient), N patients: 1^a

## C=CCNc1c(O)cc2c(O)c1C[C@@H](C)C[C@H](OC)[C@H](O)[C@@H](C)/C=C(\C)[C@H](OC(N)=O)[C@@H](OC)/C=C\C=C(/C)C(=O)N2 [retaspimycin]
[6]
  patients with stable disease: 62%

## CCNC(=O)c1noc(-c2cc(C(C)C)c(O)cc2O)c1-c1ccc(CN2CCOCC2)cc1 [NVP-AUY922]
[7]
  confirmed PR by RECIST, number: one
  partial metabolic responses on FDG-PET, number: two

## C=CCNC1=C2C[C@@H](C)C[C@H](OC)[C@H](O)[C@@H](C)/C=C(\C)[C@H](OC(N)=O)[C@@H](OC)/C=C\C=C(/C)C(=O)NC(=CC1=O)C2=O [tanespimycin]
[8]
  clinical benefit rate (CBR): 59%
  response rate: 22%
